Organism: Rattus norvegicus
Experiment: Open TG-GATES - Regimen: Daily Repeat
Type: toxicity, organism-based, Sprague-Dawley
Parameters: regimen Daily Repeat, gender Male, age 6 weeks
Conditions: in vivo, po, route gavage; for APTT / Bas / Eos / Fbg / Hb / Ht / Lym / MCH / MCHC / MCV / Mono / Neu / PT / Plat / RBC / Ret / WBC: tissue Blood; for KIDNEY_L / KIDNEY_R / KIDNEY_TOTAL: tissue Kidney; for LIVER: tissue Liver; for A/G / ALP / ALT / AST / BUN / CRE / Ca / Cl / DBIL / GLC / IP / K / LDH / Na / PL / RALB / TBIL / TC / TG / TP / gamma-GTP: tissue Plasma
[1] = 150 mg/kg, 72 h, dose level Middle, time 3 day
[2] = 150 mg/kg, […], dose level Middle, time 7 day
[3] = 150 mg/kg, […], dose level Middle, time 14 day
[4] = 150 mg/kg, […], dose level Middle, time 28 day
[5] = 500 mg/kg, 72 h, dose level High, time 3 day
[6] = 500 mg/kg, […], dose level High, time 7 day
[7] = 500 mg/kg, […], dose level High, time 14 day
[8] = 500 mg/kg, […], dose level High, time 28 day

CC(=O)Oc1cc(C(C)C)c(OCCN(C)C)cc1C [MOXISYLYTE]
TERMINAL_BW [1]: 223.4 g
APTT [1]: 20.6 s
Bas [1]: 0%
Eos [1]: 1%
Fbg [1]: 313 mg/dL
Hb [1]: 14.1 g/dL
Ht [1]: 40.5%
Lym [1]: 78%
MCH [1]: 21.3 pg
MCHC [1]: 34.8%
MCV [1]: 61.2 fL
Mono [1]: 2.4%
Neu [1]: 17.6%
PT [1]: 16.2 s
Plat [1]: 113.1 x10_4/uL
RBC [1]: 663.6 x10_4/ul
Ret [1]: 6.3%
WBC [1]: 91.7 x10_2/uL
KIDNEY_L [1]: 1 g
KIDNEY_R [1]: 1 g
KIDNEY_TOTAL [1]: 2 g
LIVER [1]: 9.7 g
A/G [1]: 1.3
ALP [1]: 1491.8 IU/L
ALT [1]: 42.6 IU/L
AST [1]: 75.6 IU/L
BUN [1]: 16.4 mg/dL
CRE [1]: 0.1 mg/dL
Ca [1]: 10.8 mg/dL
Cl [1]: 106.6 meq/L
DBIL [1]: 0.01 mg/dL
GLC [1]: 176.8 mg/dL
IP [1]: 7.4 mg/dL
K [1]: 4.2 meq/L
LDH [1]: 242.8 IU/L
Na [1]: 142.6 meq/L
PL [1]: 159.8 mg/dL
RALB [1]: 3.3 g/dL
TBIL [1]: 0.008 mg/dL
TC [1]: 74.4 mg/dL
TG [1]: 140.6 mg/dL
TP [1]: 5.8 g/dL
gamma-GTP [1]: 1 IU/L
TERMINAL_BW [2]: 265.4 g
TERMINAL_BW [3]: 312.1 g
TERMINAL_BW [4]: 361.5 g
APTT [2]: 22.3 s
Bas [2]: 0%
Eos [2]: 0.6%
Fbg [2]: 318.2 mg/dL
Hb [2]: 13.4 g/dL
Ht [2]: 38.8%
Lym [2]: 81.4%
MCH [2]: 21.1 pg
MCHC [2]: 34.6%
MCV [2]: 61.2 fL
Mono [2]: 2.2%
Neu [2]: 15.2%
PT [2]: 15.3 s
Plat [2]: 113.7 x10_4/uL
RBC [2]: 633.2 x10_4/ul
Ret [2]: 6.1%
WBC [2]: 110.8 x10_2/uL
APTT [3]: 21.8 s
Bas [3]: 0%
Eos [3]: 1.2%
Fbg [3]: 310.8 mg/dL
Hb [3]: 14.5 g/dL
Ht [3]: 40%
Lym [3]: 76.4%
MCH [3]: 20.9 pg
MCHC [3]: 36.3%
MCV [3]: 57.8 fL
Mono [3]: 2.6%
Neu [3]: 19%
PT [3]: 15.9 s
Plat [3]: 117.3 x10_4/uL
RBC [3]: 692.8 x10_4/ul
Ret [3]: 4.9%
WBC [3]: 125.2 x10_2/uL
APTT [4]: 22.5 s
Bas [4]: 0%
Eos [4]: 1%
Fbg [4]: 323.6 mg/dL
Hb [4]: 15.1 g/dL
Ht [4]: 42.5%
Lym [4]: 81.6%
MCH [4]: 19 pg
MCHC [4]: 35.4%
MCV [4]: 53.5 fL
Mono [4]: 2.4%
Neu [4]: 14.2%
PT [4]: 15.6 s
Plat [4]: 92.2 x10_4/uL
RBC [4]: 793.6 x10_4/ul
Ret [4]: 2.7%
WBC [4]: 166.9 x10_2/uL
KIDNEY_L [2]: 1.1 g
KIDNEY_R [2]: 1.2 g
KIDNEY_TOTAL [2]: 2.3 g
KIDNEY_L [3]: 1.2 g
KIDNEY_R [3]: 1.3 g
KIDNEY_TOTAL [3]: 2.6 g
KIDNEY_L [4]: 1.4 g
KIDNEY_R [4]: 1.4 g
KIDNEY_TOTAL [4]: 2.8 g
LIVER [2]: 12.3 g
LIVER [3]: 13.7 g
LIVER [4]: 14.2 g
A/G [2]: 1.3
ALP [2]: 1576.8 IU/L
ALT [2]: 43.4 IU/L
AST [2]: 77.8 IU/L
BUN [2]: 17.2 mg/dL
CRE [2]: 0.2 mg/dL
Ca [2]: 10.6 mg/dL
Cl [2]: 106 meq/L
DBIL [2]: 0 mg/dL
GLC [2]: 192.2 mg/dL
IP [2]: 7.2 mg/dL
K [2]: 4.3 meq/L
LDH [2]: 192.2 IU/L
Na [2]: 141.4 meq/L
PL [2]: 155.4 mg/dL
RALB [2]: 3.1 g/dL
TBIL [2]: 0.006 mg/dL
TC [2]: 75.6 mg/dL
TG [2]: 147.6 mg/dL
TP [2]: 5.5 g/dL
gamma-GTP [2]: 1.4 IU/L
A/G [3]: 1.2
ALP [3]: 1330.2 IU/L
ALT [3]: 44.6 IU/L
AST [3]: 79.2 IU/L
BUN [3]: 18.8 mg/dL
CRE [3]: 0.2 mg/dL
Ca [3]: 10.6 mg/dL
Cl [3]: 107.4 meq/L
DBIL [3]: 0 mg/dL
GLC [3]: 173.2 mg/dL
IP [3]: 6 mg/dL
K [3]: 4.2 meq/L
LDH [3]: 181.2 IU/L
Na [3]: 141 meq/L
PL [3]: 146.2 mg/dL
RALB [3]: 3.1 g/dL
TBIL [3]: 0 mg/dL
TC [3]: 76.2 mg/dL
TG [3]: 151.4 mg/dL
TP [3]: 5.7 g/dL
gamma-GTP [3]: 1 IU/L
A/G [4]: 1
ALP [4]: 1105.4 IU/L
ALT [4]: 41 IU/L
AST [4]: 70.4 IU/L
BUN [4]: 17.4 mg/dL
CRE [4]: 0.2 mg/dL
Ca [4]: 10.4 mg/dL
Cl [4]: 107 meq/L
DBIL [4]: 0.002 mg/dL
GLC [4]: 188.2 mg/dL
IP [4]: 6.1 mg/dL
K [4]: 4.1 meq/L
LDH [4]: 137 IU/L
Na [4]: 141.8 meq/L
PL [4]: 143 mg/dL
RALB [4]: 3.1 g/dL
TBIL [4]: 0.006 mg/dL
TC [4]: 71.4 mg/dL
TG [4]: 150.4 mg/dL
TP [4]: 6 g/dL
gamma-GTP [4]: 2.2 IU/L
TERMINAL_BW [5]: 224 g
APTT [5]: 20.8 s
Bas [5]: 0%
Eos [5]: 1%
Fbg [5]: 325 mg/dL
Hb [5]: 14.2 g/dL
Ht [5]: 40.8%
Lym [5]: 76%
MCH [5]: 21.2 pg
MCHC [5]: 34.8%
MCV [5]: 61 fL
Mono [5]: 2.8%
Neu [5]: 20%
PT [5]: 15.7 s
Plat [5]: 118.1 x10_4/uL
RBC [5]: 669.4 x10_4/ul
Ret [5]: 6.3%
WBC [5]: 95.6 x10_2/uL
KIDNEY_L [5]: 1 g
KIDNEY_R [5]: 1 g
KIDNEY_TOTAL [5]: 2 g
LIVER [5]: 10.7 g
A/G [5]: 1.3
ALP [5]: 1492.8 IU/L
ALT [5]: 46.6 IU/L
AST [5]: 77.6 IU/L
BUN [5]: 17.6 mg/dL
CRE [5]: 0.2 mg/dL
Ca [5]: 10.9 mg/dL
Cl [5]: 106.4 meq/L
DBIL [5]: 0.004 mg/dL
GLC [5]: 176.4 mg/dL
IP [5]: 7.6 mg/dL
K [5]: 4.4 meq/L
LDH [5]: 244.2 IU/L
Na [5]: 142.6 meq/L
PL [5]: 177.6 mg/dL
RALB [5]: 3.2 g/dL
TBIL [5]: 0.012 mg/dL
TC [5]: 92.2 mg/dL
TG [5]: 118.6 mg/dL
TP [5]: 5.8 g/dL
gamma-GTP [5]: 1.2 IU/L
TERMINAL_BW [6]: 243.1 g
TERMINAL_BW [7]: 311.5 g
TERMINAL_BW [8]: 377.7 g
APTT [6]: 21.5 s
Bas [6]: 0%
Eos [6]: 0.8%
Fbg [6]: 317.8 mg/dL
Hb [6]: 13.6 g/dL
Ht [6]: 38.5%
Lym [6]: 76.6%
MCH [6]: 21 pg
MCHC [6]: 35.3%
MCV [6]: 59.4 fL
Mono [6]: 2.4%
Neu [6]: 19.6%
PT [6]: 15.4 s
Plat [6]: 118.7 x10_4/uL
RBC [6]: 649.6 x10_4/ul
Ret [6]: 4.8%
WBC [6]: 113.3 x10_2/uL
APTT [7]: 22.2 s
Bas [7]: 0%
Eos [7]: 1%
Fbg [7]: 314.8 mg/dL
Hb [7]: 14.6 g/dL
Ht [7]: 39.8%
Lym [7]: 74.4%
MCH [7]: 21.2 pg
MCHC [7]: 36.7%
MCV [7]: 57.9 fL
Mono [7]: 2.2%
Neu [7]: 21.6%
PT [7]: 15.8 s
Plat [7]: 122.7 x10_4/uL
RBC [7]: 688.2 x10_4/ul
Ret [7]: 5%
WBC [7]: 116.2 x10_2/uL
APTT [8]: 21.9 s
Bas [8]: 0%
Eos [8]: 1.2%
Fbg [8]: 311 mg/dL
Hb [8]: 15 g/dL
Ht [8]: 42.8%
Lym [8]: 79.2%
MCH [8]: 18.7 pg
MCHC [8]: 35.1%
MCV [8]: 53.3 fL
Mono [8]: 1.6%
Neu [8]: 17.4%
PT [8]: 15.3 s
Plat [8]: 105.2 x10_4/uL
RBC [8]: 802.6 x10_4/ul
Ret [8]: 2.9%
WBC [8]: 118.3 x10_2/uL
KIDNEY_L [6]: 1.1 g
KIDNEY_R [6]: 1.1 g
KIDNEY_TOTAL [6]: 2.1 g
KIDNEY_L [7]: 1.2 g
KIDNEY_R [7]: 1.3 g
KIDNEY_TOTAL [7]: 2.5 g
KIDNEY_L [8]: 1.4 g
KIDNEY_R [8]: 1.4 g
KIDNEY_TOTAL [8]: 2.8 g
LIVER [6]: 11.2 g
LIVER [7]: 14.8 g
LIVER [8]: 15.5 g
A/G [6]: 1.3
ALP [6]: 1348.8 IU/L
ALT [6]: 46.2 IU/L
AST [6]: 74.8 IU/L
BUN [6]: 19 mg/dL
CRE [6]: 0.2 mg/dL
Ca [6]: 10.6 mg/dL
Cl [6]: 105.8 meq/L
DBIL [6]: 0 mg/dL
GLC [6]: 168.8 mg/dL
IP [6]: 6.7 mg/dL
K [6]: 4.1 meq/L
LDH [6]: 205.6 IU/L
Na [6]: 141.6 meq/L
PL [6]: 169.8 mg/dL
RALB [6]: 3.1 g/dL
TBIL [6]: 0.012 mg/dL
TC [6]: 86.4 mg/dL
TG [6]: 120.8 mg/dL
TP [6]: 5.5 g/dL
gamma-GTP [6]: 1.4 IU/L
A/G [7]: 1.2
ALP [7]: 1394 IU/L
ALT [7]: 43.6 IU/L
AST [7]: 69.2 IU/L
BUN [7]: 17.4 mg/dL
CRE [7]: 0.2 mg/dL
Ca [7]: 10.6 mg/dL
Cl [7]: 104.6 meq/L
DBIL [7]: 0 mg/dL
GLC [7]: 179.4 mg/dL
IP [7]: 6.7 mg/dL
K [7]: 3.7 meq/L
LDH [7]: 123.6 IU/L
Na [7]: 141.4 meq/L
PL [7]: 171 mg/dL
RALB [7]: 3.2 g/dL
TBIL [7]: 0.006 mg/dL
TC [7]: 83.2 mg/dL
TG [7]: 190 mg/dL
TP [7]: 5.8 g/dL
gamma-GTP [7]: 1 IU/L
A/G [8]: 1.1
ALP [8]: 1129.4 IU/L
ALT [8]: 47.6 IU/L
AST [8]: 69.8 IU/L
BUN [8]: 17.6 mg/dL
CRE [8]: 0.2 mg/dL
Ca [8]: 10.7 mg/dL
Cl [8]: 106 meq/L
DBIL [8]: 0.004 mg/dL
GLC [8]: 189 mg/dL
IP [8]: 6.4 mg/dL
K [8]: 4.1 meq/L
LDH [8]: 151.2 IU/L
Na [8]: 142.2 meq/L
PL [8]: 173.6 mg/dL
RALB [8]: 3.2 g/dL
TBIL [8]: 0.008 mg/dL
TC [8]: 87 mg/dL
TG [8]: 152.2 mg/dL
TP [8]: 6.2 g/dL
gamma-GTP [8]: 2 IU/L
